Source: patent US9233983B2, “Substituted hetero-bicyclic compounds, compositions and medicinal applications thereof” (ADVINUS THERAPEUTICS LIMITED, priority 2012, dated 2016)

Biological target: human Bruton's Tyrosine Kinase (Btk) (Homo sapiens (Human), UniProt Q06187)
Test: Recombinant Human Bruton's Tyrosine Kinase (Btk) Inhibition Assay (HTRF KinEASE-TK)
Type: biochemical
Conditions: 20 ng/ml rhBtk, 77 μM ATP (KM), 1 μM TK-Biotin substrate, 90 min; read-out: hBTK IC50

Chain of human Bruton's Tyrosine Kinase (Btk) (Q06187 whole entry): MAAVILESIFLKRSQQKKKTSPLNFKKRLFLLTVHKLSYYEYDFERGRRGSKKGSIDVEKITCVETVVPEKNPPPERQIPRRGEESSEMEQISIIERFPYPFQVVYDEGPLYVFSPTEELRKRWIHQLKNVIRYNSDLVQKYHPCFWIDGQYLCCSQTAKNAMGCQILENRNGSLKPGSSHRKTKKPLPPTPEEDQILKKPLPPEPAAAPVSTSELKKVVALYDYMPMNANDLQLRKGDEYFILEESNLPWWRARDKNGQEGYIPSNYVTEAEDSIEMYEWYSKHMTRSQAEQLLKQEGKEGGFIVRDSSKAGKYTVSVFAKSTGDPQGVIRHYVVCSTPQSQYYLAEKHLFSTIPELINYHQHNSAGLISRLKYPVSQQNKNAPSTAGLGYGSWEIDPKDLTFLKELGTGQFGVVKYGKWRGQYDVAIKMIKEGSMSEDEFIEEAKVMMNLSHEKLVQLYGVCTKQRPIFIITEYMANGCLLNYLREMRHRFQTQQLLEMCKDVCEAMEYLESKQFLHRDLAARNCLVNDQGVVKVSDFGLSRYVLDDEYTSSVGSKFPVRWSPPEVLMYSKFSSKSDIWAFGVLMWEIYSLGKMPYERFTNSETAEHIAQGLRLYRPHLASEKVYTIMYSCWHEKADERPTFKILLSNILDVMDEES

IC50 [µM] | Structure (SMILES)
> 1 | Cc1c(-c2ncnc3[nH]c(-c4ccc(C(=O)NCC(F)(F)F)cc4)cc23)cccc1N1CCOc2cc(C3CC3)ccc2C1=O [Example K-7, 4-[4-[3-(8-cyclopropyl-5-oxo-2,3-dihydro-1,4-benzoxazepin-4-yl)-2-methyl-phenyl]-7H-pyrrolo[2,3-d]pyrimidin-6-yl]-N-(2,2,2-trifluoroethyl)benzamide]
0.36 | Cc1c(-c2ncnc3[nH]c(-c4ccc(C(=O)N5CC(O)C5)cc4)cc23)cccc1N1CCOc2cc(C3CC3)ccc2C1=O [Example K-8, 8-cyclopropyl-4-[3-[6-[4-(3-hydroxyazetidine-1-carbonyl)phenyl]-7H-pyrrolo[2,3-d]pyrimidin-4-yl]-2-methyl-phenyl]-2,3-dihydro-1,4-benzoxazepin-5-one]
0.137 | Cc1c(-c2ncnc3[nH]c(-c4ccc(C(=O)N5CCCC5)cc4)cc23)cccc1N1CCOc2cc(C3CC3)ccc2C1=O [Example K-9, 8-cyclopropyl-4-[2-methyl-3-[6-[4-(pyrrolidine-1-carbonyl)phenyl]-7H-pyrrolo[2,3-d]pyrimidin-4-yl]phenyl]-2,3-dihydro-1,4-benzoxazepin-5-one]
0.233 | COC1CCN(C(=O)c2ccc(-c3cc4c(-c5cccc(N6CCOc7cc(C8CC8)ccc7C6=O)c5C)ncnc4[nH]3)cc2)CC1 [Example K-10, 8-cyclopropyl-4-[3-[6-[4-(4-methoxypiperidine-1-carbonyl)phenyl]-7H-pyrrolo[2,3-d]pyrimidin-4-yl]-2-methyl-phenyl]-2,3-dihydro-1,4-benzoxazepin-5-one]
0.162 | COC1CN(C(=O)c2ccc(-c3cc4c(-c5cccc(N6CCOc7cc(C8CC8)ccc7C6=O)c5C)ncnc4[nH]3)cc2)C1 [Example K-11, 8-cyclopropyl-4-[3-[6-[4-(3-methoxyazetidine-1-carbonyl)phenyl]-7H-pyrrolo[2,3-d]pyrimidin-4-yl]-2-methyl-phenyl]-2,3-dihydro-1,4-benzoxazepin-5-one]
0.114 | Cc1c(-c2ncnc3[nH]c(-c4ccc(C(=O)N5CCCC5C(=O)O)cc4)cc23)cccc1N1CCOc2cc(C3CC3)ccc2C1=O (centres unmarked) [Example K-12, 1-[4-[4-[3-(8-cyclopropyl-5-oxo-2,3-dihydro-1,4-benzoxazepin-4-yl)-2-methyl-phenyl]-7H-pyrrolo[2,3-d]pyrimidin-6-yl]benzoyl]pyrrolidine-2-carboxylic acid]
0.133 | Cc1c(-c2ncnc3[nH]c(-c4ccc(C(=O)N5CCCC(C(=O)O)C5)cc4)cc23)cccc1N1CCOc2cc(C3CC3)ccc2C1=O (centres unmarked) [Example K-13, 1-[4-[4-[3-(8-cyclopropyl-5-oxo-2,3-dihydro-1,4-benzoxazepin-4-yl)-2-methyl-phenyl]-7H-pyrrolo[2,3-d]pyrimidin-6-yl]benzoyl]piperidine-3-carboxylic acid]
> 1 | Cc1c(-c2ncnc3[nH]c(-c4ccc(C(=O)N5CCC(C(=O)O)CC5)cc4)cc23)cccc1N1CCOc2cc(C3CC3)ccc2C1=O [Example K-14, 1-[4-[4-[3-(8-cyclopropyl-5-oxo-2,3-dihydro-1,4-benzoxazepin-4-yl)-2-methyl-phenyl]-7H-pyrrolo[2,3-d]pyrimidin-6-yl]benzoyl]piperidine-4-carboxylic acid]
0.13 | Cc1c(-c2ncnc3[nH]c(-c4ccc(C(=O)N5CCOCC5)cc4)cc23)cccc1N1CCc2cc(C3CC3)ccc2C1=O [Example K-15, 6-cyclopropyl-2-[2-methyl-3-[6-[4-(morpholine-4-carbonyl)phenyl]-7H-pyrrolo[2,3-d]pyrimidin-4-yl]phenyl]-3,4-dihydroisoquinolin-1-one]
0.041 | Cc1c(-c2ncnc3[nH]c(-c4ccc(C(=O)N5CC(O)C5)cc4)cc23)cccc1N1CCc2cc(C3CC3)ccc2C1=O [Example K-17, 6-cyclopropyl-2-[3-[6-[4-(3-hydroxyazetidine-1-carbonyl)phenyl]-7H-pyrrolo[2,3-d]pyrimidin-4-yl]-2-methyl-phenyl]-3,4-dihydroisoquinolin-1-one]
0.208 | Cc1c(-c2ncnc3[nH]c(-c4ccc(C(=O)N5CCN(C)CC5)cc4)cc23)cccc1N1CCc2cc(C3CC3)ccc2C1=O [Example K-18, 6-cyclopropyl-2-[2-methyl-3-[6-[4-(4-methylpiperazine-1-carbonyl)phenyl]-7H-pyrrolo[2,3-d]pyrimidin-4-yl]phenyl]-3,4-dihydroisoquinolin-1-one]
> 1 | Cc1c(-c2ncnc3[nH]c(-c4ccc(C(=O)N5CCN(C)CC5)cc4)cc23)cccc1N1CCc2cc(C3CC3)ccc2C1=O [Example K-21, 6-cyclopropyl-2-[2-methyl-3-[6-[4-(4-methylpiperazine-1-carbonyl)phenyl]-7H-pyrrolo[2,3-d]pyrimidin-4-yl]phenyl]-3,4-dihydroisoquinolin-1-one]
0.043 | CC1(O)CN(C(=O)c2ccc(-c3cc4c(-c5cccc(N6CCOc7cc(C8CC8)cc(F)c7C6=O)c5CO)ccnc4[nH]3)nc2)C1 [Example L-4, 8-cyclopropyl-6-fluoro-4-[2-(hydroxymethyl)-3-[2-[5-(3-hydroxy-3-methyl-azetidine-1-carbonyl)-2-pyridyl]-1H-pyrrolo[2,3-b]pyridin-4-yl]phenyl]-2,3-dihydro-1,4-benzoxazepin-5-one]
> 1 | Cc1c(-c2ncnc3[nH]c(-c4ccccc4)cc23)cccc1N1CCOc2cc(C3CC3)ccc2C1=O [Example M-1, 8-cyclopropyl-4-[2-methyl-3-(6-phenyl-7H-pyrrolo[2,3-d]pyrimidin-4-yl)phenyl]-2,3-dihydro-1,4-benzoxazepin-5-one]
> 1 | Cc1c(-c2ncnc3[nH]c(-c4ccccc4)cc23)cccc1N1CCc2cc(C3CC3)ccc2C1=O [Example M-2, 6-cyclopropyl-2-[2-methyl-3-(6-phenyl-7H-pyrrolo[2,3-d]pyrimidin-4-yl)phenyl]-3,4-dihydroisoquinolin-1-one]
> 1 | Cc1c(-c2ncnc3[nH]c(-c4ccc(N5CCOCC5)cc4)cc23)cccc1N1CCOc2cc(C3CC3)ccc2C1=O [Example M-3, 8-cyclopropyl-4-[2-methyl-3-[6-(4-morpholinophenyl)-7H-pyrrolo[2,3-d]pyrimidin-4-yl]phenyl]-2,3-dihydro-1,4-benzoxazepin-5-one]
0.181 | Cc1c(-c2nc(N)nc3[nH]c(-c4ccc(N5CCOCC5)nc4)cc23)cccc1N1CCOc2cc(C3CC3)ccc2C1=O [Example N-2, 4-[3-[2-amino-6-(6-morpholino-3-pyridyl)-7H-pyrrolo[2,3-d]pyrimidin-4-yl]-2-methyl-phenyl]-8-cyclopropyl-2,3-dihydro-1,4-benzoxazepin-5-one]
0.272 | Cc1c(-c2ncnc3[nH]c(C4=CCN(CCCO)CC4)cc23)cccc1N1CCOc2cc(C3CC3)ccc2C1=O [Example P-1, 8-cyclopropyl-4-[3-[6-[1-(3-hydroxypropyl)-3,6-dihydro-2H-pyridin-4-yl]-7H-pyrrolo[2,3-d]pyrimidin-4-yl]-2-methyl-phenyl]-2,3-dihydro-1,4-benzoxazepin-5-one]
0.611 | Cc1c(-c2ncnc3[nH]c(C4=CCN(CCO)CC4)cc23)cccc1N1CCOc2cc(C3CC3)ccc2C1=O [Example P-2, 8-cyclopropyl-4-[3-[6-[1-(2-hydroxyethyl)-3,6-dihydro-2H-pyridin-4-yl]-7H-pyrrolo[2,3-d]pyrimidin-4-yl]-2-methyl-phenyl]-2,3-dihydro-1,4-benzoxazepin-5-one]
> 1 | Cc1c(-c2ncnc3[nH]c(C4CCN(CCCO)CC4)cc23)cccc1N1CCOc2cc(C3CC3)ccc2C1=O [Example P-3, 8-cyclopropyl-4-[3-[6-[1-(3-hydroxypropyl)-4-piperidyl]-7H-pyrrolo[2,3-d]pyrimidin-4-yl]-2-methyl-phenyl]-2,3-dihydro-1,4-benzoxazepin-5-one]
> 1 | Cc1c(-c2ncnc3[nH]c(C4=CCCNC4)cc23)cccc1N1CCOc2cc(C3CC3)ccc2C1=O [Example P-4, 8-cyclopropyl-4-[2-methyl-3-[6-(1,2,3,6-tetrahydropyridin-5-yl)-7H-pyrrolo[2,3-d]pyrimidin-4-yl]phenyl]-2,3-dihydro-1,4-benzoxazepin-5-one]
0.082 | CN1CCN(Cc2ccc(-c3cc4c(-c5cccc(N6CCOc7cc(C8CC8)ccc7C6=O)c5)c(C#N)cnc4[nH]3)cc2)CC1 [Example P-6, 4-[3-(8-cyclopropyl-5-oxo-2,3-dihydro-1,4-benzoxazepin-4-yl)phenyl]-2-[4-[(4-methylpiperazin-1-yl)methyl]phenyl]-1H-pyrrolo[2,3-b]pyridine-5-carbonitrile]
0.046 | O=C(O)c1ccc(-c2cc3c(-c4cccc(N5CCOc6cc(C7CC7)ccc6C5=O)c4CO)ccnc3[nH]2)nc1 [Example P-7, 6-[4-[3-(8-cyclopropyl-5-oxo-2,3-dihydro-1,4-benzoxazepin-4-yl)-2-(hydroxymethyl)phenyl]-1H-pyrrolo[2,3-b]pyridin-2-yl]pyridine-3-carboxylic acid]
0.025 | O=C1c2ccc(C3CC3)cc2OCCN1c1cccc(-c2ccnc3[nH]c(-c4ccc(C(O)CO)cc4)cc23)c1CO (centres unmarked) [Example P-8, 8-cyclopropyl-4-[3-[2-[4-(1,2-dihydroxyethyl)phenyl]-1H-pyrrolo[2,3-b]pyridin-4-yl]-2-(hydroxymethyl)phenyl]-2,3-dihydro-1,4-benzoxazepin-5-one]
0.01 | CS(=O)(=O)N1CC=C(c2cc3c(-c4cccc(N5CCOc6cc(C7CC7)cc(F)c6C5=O)c4CO)ccnc3[nH]2)CC1 [Example P-11, 8-cyclopropyl-6-fluoro-4-[2-(hydroxymethyl)-3-[2-(1-methylsulfonyl-3,6-dihydro-2H-pyridin-4-yl)-1H-pyrrolo[2,3-b]pyridin-4-yl]phenyl]-2,3-dihydro-1,4-benzoxazepin-5-one]
0.022 | O=C1c2c(F)cc(C3CC3)cc2OCCN1c1cccc(-c2ccnc3[nH]c(C4=CCN(C5COC5)CC4)cc23)c1CO [Example P-12, 8-cyclopropyl-6-fluoro-4-[2-(hydroxymethyl)-3-[2-[1-(oxetan-3-yl)-3,6-dihydro-2H-pyridin-4-yl]-1H-pyrrolo[2,3-b]pyridin-4-yl]phenyl]-2,3-dihydro-1,4-benzoxazepin-5-one]
